The pEC50 is the EC50 on a negative log10 scale, so that one unit is a factor of ten. Higher therefore signals a small EC50. Broadly, the EC90 is the concentration at which the effect reaches the 90% level. Read a high EC90 as a need for much substance. Broadly, the CC50 is the concentration giving 50% cytotoxicity.

Series [1] in a line: Weight change and apparent toxicity in orally treated HBV transgenic mice. The series is classed as in vivo. On the procedure:
Compound 6k was evaluated for anti-HBV activity in the transgenic mouse model of HBV infection. Male transgenic mouse infected with HBV, with age ranging from 78 to 108 days were used. Compound 6k was initially evaluated at a single dose of 300 mg/kg, administered daily for 14 days by oral gavage. The compounds were administered in citric acid and adefovir dipivoxil was used as a positive control. A control group which received vehicle was used a negative control. Following the treatment, mice were sacrificed and liver tissue analyzed for HBV DNA using Southern blot analysis. The data was statistically evaluated using Kruskall-Wallis non-parametric ANOVA.
(a) Male and female transgenic mice (founder 1.3.32) were infected with human hepatitis B virus. Following infection, animals were orally administered Compound 6k, or a placebo of 0.05 M citric acid, pH 2.0 once daily for 14 days. Dosage was 300 mg/kg/d for Compound 6k. The positive control, ADV, was administered at 10 mg/kg/d.
Statistical significance is indicated as *P≦0.05, **P≦0.01, ***P≦0.001 compared to placebo vehicle.

The test system of another series is HBV-3TC-R4 LMMV. The series is classed as cell-based. The conditions noted are these: Hepatitis B virus.
The nature of series [2]: Cytotoxicity by neutral red dye uptake in HCV replicon cultures. Type of series: cell-based. The conditions noted are these: human, AVA5 HCV replicon cell line (sub-genomic CON1, genotype 1b); parallel plates, 3-day assay; read-out: CC50, neutral red dye uptake. On the procedure: Antiviral activity against HCV was assessed in a 3-day assay (Okuse, et al., 2005; Antiviral. Res. 65:23; Korba, et al., 2008, Antiviral Res. 77:56) using the stably-expressing HCV replicon cell line, AVA5 (sub-genomic (CON1), genotype 1b) (Blight, et al., 2000; Science 290:1972) maintained as sub-confluent cultures on 96-well plates. Antiviral activity was determined by blot hybridization analysis of intracellular HCV RNA (normalized to the level of cellular B-actin RNA in each culture sample). Cytotoxicity was assessed by neutral red dye uptake in cultures maintained in parallel plates.
EC50, EC90, and CC50 values were calculated by linear regression analysis (MS EXCEL®, QuattroPro®) using data combined from all treated cultures Korba & Gerin, 1992, Antivir. Res. 19:55; Okuse, et al., 2005, Antivir. Res. 65:23). […]
Combination treatments are conducted as previously described. Briefly, two agents were mixed together at a pre-determined concentration ratio. […] Analysis of drug interactions in the combination studies was determined by the use of the CALCUSYN program (Biosoft, Inc., Cambridge, United Kingdom). […]
(In general: In antiviral work, replicon cells carry a viral genome segment that copies itself.)

For the next series, the system named is NOD2. In words: IRF3 induction in HEK cells with or without transfected NOD2. Type of series: cell-based.

The structures appear in SMILES notation. pEC50: −log10 of the molar value.

On to `CO[C@H]1C(OP(=O)(OC[C@H]2O[C@@H](n3cnc4c(N)ncnc43)CC2O)SCOC(=O)OC(C)C)[C@@H](CO)O[C@H]1n1ccc(=O)[nH]c1=O` (stereo partly shown) [Compound 6k], for which the “% weight change ± sd” value in series [1] (300 mg/kg/d, oral, once daily 14 days) is given as 4.3 ± 1.8%. Also, the apparent toxicity result in series [1] (high doses employed, oral once daily 14 days) was “no apparent toxicity”. In the series on HBV-3TC-R4 LMMV, the negative-log EC50 (pEC50) is 5.51 and the 90% effect level (EC90) was put at 9.3 µM. Further, the cytotoxic concentration (CC50) at 3 day in series [2] was above 100 µM.
As for `CO[C@H]1C(OP(=O)(S)OC[C@H]2O[C@@H](n3cnc4c(N)ncnc43)CC2O)[C@@H](CO)O[C@H]1n1ccc(=O)[nH]c1=O` (stereo partly shown) [Compound 5, 3-dApsU2′-OMe], the results for the “induction of IRF3” value with NOD2 (HEK cells transfected with NOD2) and in the series with NOD2 (NOD2 deficient HEK cells) were “cause induction of IRF3” and “failed to induce IRF3”, respectively.
